Columns and labels:
Type in all cases: cell-based
[1] = system: human adipose stem cells (hASCs); assay: 'Oil Red O' staining of fat accumulation after adipocyte differentiation; settings: F68 0.05%, NaB 20 μg/ml, alone or combined; 10 days adipogenic differentiation; compared to positive control
Method: (§1) The cells were seeded into 6-well culture plates at 100,000 cells/well in an adipogenic differentiation medium. Content of the medium was as follows. 10% (v/v) FBS, 1 uM dexamethasone, 100 uM indomethacin (Sigma, USA), 500 uM IBMX (Calbiochem Merck Millipore, Germany) and 0.01 mg/mL insulin (Gibco, UK). 5 different groups were prepared; only F68, only NaB, F68 and NaB combination, PC and NC. Adipogenic differentiation was applied for 10 days by changing the medium every other day. While only DMEM, 10% (v/v) FBS and 1% (v/v) PSA were applied to the negative control group, the positive control group was cultured with adipogenic differentiation medium.
The ‘Oil Red O’ solution was prepared by dissolving 0.5 grams of ‘Oil Red O’ (Sigma, USA) in 100 ml of isopropanol. After being fixed with 2% paraformaldehyde (weight/volume) for 30 minutes, the cells were incubated in ‘Oil Red O’ solution (diluted in PBS at 6:4) for 1 hour. The cells were observed under light microscope.
Statistical analysis of the results was performed with the unpaired t-test and the graphs were drawn using GraphPad Prism 5 software Statistical significance was accepted as p<0.05. In addition, a graphical representation of the results obtained from immunocytochemistry and ‘Oil red O’ staining was obtained using the Adobe Creative Suite 6 program

[2] = system: PPARγ, FABP4 and adiponectin gene expression in human adipose stem cells; assay: RT-PCR analysis of adipogenesis-promoting gene expression after adipocyte differentiation; settings: F68 0.05%, NaB 20 μg/ml, alone or combined; 10 days adipogenic differentiation; compared to positive control; normalized to GAPDH
Method: as §1
Following differentiation, RNA isolation was carried out using High Pure RNA Isolation Kit (Roche, Germany) in accordance with the manufacturer's instructions. After performance of cDNA synthesis (High Fidelity cDNA synthesis kit, Roche, Germany) from isolated RNA samples, RT-PCR was performed in three replicates using iCycler RT-PCR detection system (Bio-Rad, Hercules, Calif.). Synthesis levels were normalized to GAPDH.
For each sample the fold changes in the expression levels were determined using the method 2 (-Delta Delta C (t)).

[3] = system: human adipose stem cells (hASCs); assay: Cytotoxicity analysis, cell viability by MTS assay; settings: NaB 20 μg/ml; for cell viability: MTS
Method: Cytotoxicity of Pluronic® F68 and NaB were dissolved and tested at 7 different concentrations in DMEM ([…], 0.7%, 0.5%, 0.3%, 0.1%, 0.05%, 0.01% (w/v) for F68 and 5, 10, 20, 50, 100, 200 and 300 ug/ml for NaB).
HASCs were seeded into 96-well culture plates (Corning Plasticware, Corning, N.Y., cat. no. CLS3360) at 5,000 cells/well. The next day, the cells were treated with F68 and NaB solutions that were prepared at different concentrations. In accordance with the manufacturer's instructions, cell viability was measured by the MTS assay (Promega, Southampton, UK CellTiter 96 AqueousOne solution). After 24, 48 and 72 hours of incubation, 10 ul of MTS reagent and 100 ul of DMEM medium were applied to the cells and then, after incubation at 37° C. for 2 hours, their absorbances at […] were measured with the ELISA plate reader (BioTek Instruments, Inc., Vt., USA).

[4] = system: PPARγ, FABP4 and adiponectin protein expression in human adipose stem cells; assay: Immunocytochemical analysis of PPARγ, FABP4 and adiponectin proteins after adipocyte differentiation; settings: F68 0.05%, NaB 20 μg/ml, alone or combined at the same ratios; compared to positive control
Method: as §1
Human adipose stem cells were seeded into 48-well plates at 8,000 cells/well. Following the differentiation experiment, the cells were fixed in 2% (w/v) paraformaldehyde at 4° C. for 30 minutes and then blocked with 2% (v/v) goat serum (Sigma, USA) for 20 minutes. The cells incubated at 4° C. overnight with PPAR-γ (ab8934, Abcam, UK, 1: 100), FABP4 (SC-30088, Santa Cruz Biotechnology, Tex., USA, 1:100) and adiponectin (ab22554, Abcam, UK, 1:50) primary antibodies were then incubated with secondary antibodies (goat anti-rabbit IgG Alexa Fluor 488, goat anti-mouse IgGAlexaFluor 488, 1:1000) at 4° C. for 2 hours. […] Immunocytochemical analysis results were observed under fluorescence microscope (NiconEclipse TE200). […]

**Q.** Which results are given for sodium pentaborate pentahydrate [NaB]?
**A.** amount of fat accumulation in the cells [1]: increased the amount of fat accumulation; expression levels of PPARγ, FABP4 and adiponectin genes [2]: increased significantly; cell viability ([3]; end of day 1, hASCs): 101%; cell viability ([3]; end of day 2, hASCs): 106%; cell viability ([3]; end of day 3, hASCs): 109%; cytotoxicity of the dosage used ([3]; hASCs): non-cytotoxic; PPARγ, FABP4 and adiponectin protein expression levels [4]: higher than that of positive control
